Laboratory results taken from patent US20260207535A1, “CRIBLAGE INHIBITEURS USP8” (COMMISSARIAT A L'ENERGIE ATOMIQUE ET AUX ENERGIES …, priority 2022, published 2026).

System: AtT-20 pituitary cells
Assay: Inhibition of ACTH secretion in pituitary cells (ACTH EIA on supernatant)
Format: cell-based, mouse
Conditions: 0.5 μM
Protocol: ACTH release (percent comparison to DMSO control). Briefly, 12,500 AtT-20 cells per well were seeded in a 96-well plate. After 24 hours exposure, cells were treated with each compound at the indicated final concentration, or with DMSO alone (control condition compound solvent) or with corticotropin releasing factor (indicated CRF) at 100 nM. After a 24-hour treatment, cell supernatants were collected and stored at −80° C., prior to quantification of ACTH concentration using ACTH chemiluminescent EIA kit (Phoenix Pharmaceuticals, Inc.). Determination of ACTH concentrations was based on the best-fitting ACTH standard curve and P values were calculated using one-way ANOVA, using Prism 9 software (GraphPad Software, Inc.) ns (P=0.12). **P<0.002. ***P<0.001. All compounds were tested in technical triplicates. One representative experiment out of three is presented.
FIG. 4: illustrates a decrease of ACTH secretion by AtT-20 cells after 24-hour treatment of halogenated salicylanilides. 12,500 AtT-20 cells per well were seeded in a 96-well plate. […] After a 24-hour treatment, cell supernatants were collected and stored at −80° C., prior to quantification of ACTH concentration using ACTH chemiluminescent EIA kit (Phoenix Pharmaceuticals, Inc.). Determination of ACTH concentrations was based on the best-fitting ACTH standard curve and P values were calculated by ordinary one-way ANOVA using Prism 6 software (GraphPad Software, Inc), ns (not significant), **** P<0.0001. Compounds were tested in technical triplicates.
12,500 AtT-20 cells per well were seeded in a 96-well plate. After 24 hours, cells were treated with compounds (corresponding chemical formula are indicated in Table 1) at 25 μM final concentration, or with DMSO alone (compound solvent). After a 24-hour treatment, cell supernatants were collected and stored at −80° C., prior to quantification of ACTH concentration using ACTH chemiluminescent EIA kit (Phoenix Pharmaceuticals, Inc.). Determination of ACTH concentrations was based on the best-fitting ACTH standard curve and P values were calculated by ordinary one-way ANOVA using Prism 6 software (GraphPad Software, Inc), ns (not significant), *P<0.05, ***P<0,0001. Compounds were tested in technical triplicates.
Mouse AtT-20 pituitary cell line were used as a powerful and well-characterized model to monitor ACTH secretion using an enzyme immunoassay (EIA) kit.
Mouse AtT-20 cells were obtained from the American Type Culture Collection and maintained on DMEM containing 10% fetal bovine serum, 100 μg/mL streptomycin and 100 U/mL penicillin at 37° C. with 5% CO2 after recovery from long-term storage on liquid nitrogen-vapor phase.
The ACTH secretion levels of AtT-20 cell culture was monitored on the supernatant of AtT-20 cells treated or not by increasing doses of compounds belonging to the family of halogenated salicylanilides chemicals.
1.25×10^4 AtT20 cells were seeded on polylysine-coated 96-well culture vessels on 150 μL of complete medium. After 24 hours, cells were treated with stock compounds to a final DMSO concentration of 0.5%. After 24 hours of treatment, cell culture supernatant was collected, cleared for 10 min at 1000×g at 4° C., diluted or not in assay buffer (Phoenix Peptide ACTH EIA EK-001-21) and frozen at −80° C. for subsequent processing according to the instructions of the kit's manufacturer.

Row | SMILES | reduction of ACTH secretion levels [%]
1 | O=C(Nc1ccc([N+](=O)[O-])cc1Cl)c1cc(Cl)ccc1O [Niclosamide, reference compound] | 27

Same assay, conditions: 1.0 μM

Row | SMILES | reduction of ACTH secretion levels [%]
2 | O=C(Nc1ccc([N+](=O)[O-])cc1Cl)c1cc(Cl)ccc1O [Niclosamide, reference compound] | 41

Same assay, conditions: 25 μM, 24-hour treatment

Row | SMILES | inhibition of ACTH at 25 μM, in words (FIG. 4, FIG. 5)
3 | O=C(Nc1ccc(Cl)cc1)c1cc(I)cc(I)c1O [Amb1935028] | significant inhibition
4 | O=C(Nc1cc(Cl)ccc1Cl)c1cc(I)cc(I)c1O [Amb8477378] | significant inhibition
5 | Cc1ccc(NC(=O)Cn2ccccc2=O)c(OCc2ccccc2)c1 [Z738998144] | ineffective
6 | O=C(Nc1ccc(Cl)cc1C(=O)c1ccccc1F)c1ccc(=O)[nH]c1 [Z220328740] | ineffective
7 | O=C(Nc1cc(Cl)cc(Cl)c1)c1cc(I)cc(I)c1O [Amb8477462] | significant inhibition
8 | O=C(Nc1ccc([N+](=O)[O-])cc1Cl)c1cc(Cl)ccc1O [Niclosamide, reference compound] | significant inhibition

Same assay, conditions: 25 μM, 24-hour treatment, AtT-20 supernatant

Row | SMILES | ACTH secretion % of control (DMSO) at 25 μM [%]
9 | O=C(Nc1ccc(Cl)cc1C(=O)c1ccccc1F)c1ccc(=O)[nH]c1 [Z220328740] | 82

Same assay, conditions: Mus musculus, AtT20; 25 μM, 24-hour treatment, AtT-20 supernatant; read-out: ACTH secretion % of control (DMSO) at 25 μM

Row | SMILES | activity at 25 µM [%]
10 | O=C(Nc1ccc(Cl)cc1)c1cc(I)cc(I)c1O [Amb1935028] | 32
11 | O=C(Nc1cc(Cl)ccc1Cl)c1cc(I)cc(I)c1O [Amb8477378] | 41
12 | Cc1ccc(NC(=O)Cn2ccccc2=O)c(OCc2ccccc2)c1 [Z738998144] | 90
13 | O=C(Nc1cc(Cl)cc(Cl)c1)c1cc(I)cc(I)c1O [Amb8477462] | 31

Same assay, conditions: Mus musculus, AtT20; 27 μM, 24-hour treatment, AtT-20 supernatant; read-out: ACTH secretion % of control (DMSO) (at 27 μM)

Row | SMILES | activity at 27 µM [%]
14 | O=C(Nc1ccc([N+](=O)[O-])cc1Cl)c1cc(Cl)ccc1O [Niclosamide, reference compound] | 41

Same assay, conditions: increasing concentrations, 24-hour treatment

Row | SMILES | dose-dependent inhibition of ACTH (FIG. 3)
15 | O=C(Nc1ccc([N+](=O)[O-])cc1Cl)c1cc(Cl)ccc1O [Niclosamide, reference compound] | significant dose-dependent inhibition

Biological target: T1, Full length USP8 (USP8FL) (Homo sapiens, UniProt P40818)
T1 construct: purchased BostonBiochem E-520
T1 sequence (P40818 1-1118): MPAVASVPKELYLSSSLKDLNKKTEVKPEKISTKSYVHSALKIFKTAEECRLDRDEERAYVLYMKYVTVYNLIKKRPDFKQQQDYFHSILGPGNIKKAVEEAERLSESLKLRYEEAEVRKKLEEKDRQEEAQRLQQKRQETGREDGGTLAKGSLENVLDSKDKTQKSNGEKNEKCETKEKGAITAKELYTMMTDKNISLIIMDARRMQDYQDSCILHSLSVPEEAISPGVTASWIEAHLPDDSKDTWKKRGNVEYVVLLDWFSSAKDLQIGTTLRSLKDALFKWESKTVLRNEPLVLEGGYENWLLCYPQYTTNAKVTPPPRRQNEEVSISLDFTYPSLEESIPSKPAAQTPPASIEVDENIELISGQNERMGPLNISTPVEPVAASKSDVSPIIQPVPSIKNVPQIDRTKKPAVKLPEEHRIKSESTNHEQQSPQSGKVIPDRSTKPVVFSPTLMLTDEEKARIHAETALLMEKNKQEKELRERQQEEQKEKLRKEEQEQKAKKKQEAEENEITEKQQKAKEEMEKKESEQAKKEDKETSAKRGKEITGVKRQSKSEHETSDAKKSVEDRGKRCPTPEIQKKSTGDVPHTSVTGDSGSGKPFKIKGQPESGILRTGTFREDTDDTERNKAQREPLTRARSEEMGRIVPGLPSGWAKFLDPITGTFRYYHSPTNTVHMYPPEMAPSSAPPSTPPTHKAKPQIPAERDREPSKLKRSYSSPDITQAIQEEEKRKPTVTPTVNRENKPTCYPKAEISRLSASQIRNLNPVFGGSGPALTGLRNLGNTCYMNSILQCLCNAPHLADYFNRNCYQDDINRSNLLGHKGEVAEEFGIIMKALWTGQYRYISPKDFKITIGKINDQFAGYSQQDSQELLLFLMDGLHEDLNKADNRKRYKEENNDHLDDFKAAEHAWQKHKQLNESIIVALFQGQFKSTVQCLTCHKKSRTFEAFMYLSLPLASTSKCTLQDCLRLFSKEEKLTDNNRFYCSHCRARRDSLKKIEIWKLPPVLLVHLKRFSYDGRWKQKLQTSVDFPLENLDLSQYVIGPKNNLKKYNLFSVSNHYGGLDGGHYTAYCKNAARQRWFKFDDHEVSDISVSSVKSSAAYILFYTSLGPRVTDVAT
Assay: USP8FL (full length USP8) enzymatic inhibition, Ub-Rhodamine 110 hydrolysis in L-cysteine buffer
Format: biochemical
Conditions: USP8 FL 75 nM, Ub-Rho 0.1 μM, L-cysteine buffer; read-out: USP8FL inhbition IC50 [μM] (CI: Confidence Interval)
Protocol: USP8 FL (USP8 Full Length) was incubated at a concentration of 75 nM in the presence of Ub-Rho (UBIQUIGENT ref. 60-0117-050) at a final concentration of 0.1 μM, in conditions ensuring linearity of enzyme activity throughout the assay in a specific buffer. Compounds were added to the reaction mix at different doses just before the substrate. The enzymatic reaction kinetics were monitored by measuring fluorescence elicited by the hydrolysis of Ub-Rho over 30 min.
In this setup, an in-house purified catalytic domain of USP8 (USP8CD) was used at a concentration of 80 nM in the presence of the artificial substrate Ubiquitin-Rhodamine 110 (Ub-Rho) (ref: 60-0117-050 Ubiquigent) at a final concentration of 0.1 μM, in conditions ensuring linearity of enzyme activity throughout the assay incubation time. Enzymatic assay was performed in a Tris HCl buffer (40 mM Tris HCl pH 7.4, Ovalbumine 0.5 mg/ml, Cysteine HCl 5.5 mM). Compounds to be tested were added to the reaction mix and incubated with enzyme for 20 min, before the substrate. The enzymatic reaction kinetics were monitored by measuring fluorescence elicited by the hydrolysis of the peptidyl Ub-Rho over 30 minutes. The negative control was the solvent DMSO at 1%.
Full length USP8 (USPBFL) (BostonBiochem ref. E-520) were used at a concentration of 75 nM in the presence of a ubiquitin substrate, i.e., the Ub-Rhodamine 110 (Ub-Rho) (Ubiquigent ref. 60-0117-050) at a final concentration of 0.1 μM. Enzymatic assays were performed as described for USP8-CD except that USP-FL was used at a concentration of 75 nM. The compounds were used at a final concentration of 0.1, 1, 5, 10, 50 and 100 μM in DMSO 0.5%. The USP8 catalytic activity was monitored both before adding the substrate (TO) and after twenty minutes of incubation at room temperature (Final Time TF). The enzymatic reaction kinetics were monitored by measuring fluorescence elicited by the hydrolysis of the Ub-Rho bound over 30 minutes.

Row | SMILES | IC50 [µM]
16 | O=C(Nc1ccc(Cl)cc1)c1cc(I)cc(I)c1O [Amb1935028] | 11.9
17 | O=C(Nc1cc(Cl)ccc1Cl)c1cc(I)cc(I)c1O [Amb8477378] | 13
18 | Cc1ccc(NC(=O)Cn2ccccc2=O)c(OCc2ccccc2)c1 [Z738998144] | > 40
19 | O=C(Nc1ccc(Cl)cc1C(=O)c1ccccc1F)c1ccc(=O)[nH]c1 [Z220328740] | > 40
20 | O=C(Nc1cc(Cl)cc(Cl)c1)c1cc(I)cc(I)c1O [Amb8477462] | 8.98
21 | O=C(Nc1ccc([N+](=O)[O-])cc1Cl)c1cc(Cl)ccc1O [Niclosamide, reference compound] | 61

System: AtT-20 cells
Assay: Cytotoxicity towards AtT-20 cells (PrestoBlue viability assay)
Conditions: 0.5 μM
Source text: The AtT-20 cells viability was monitored in the conditions used to follow ACTH secretion. The viability of treated cells was concomitantly evaluated using a Cell Viability Reagent (monitoring of the cells' reducing capacity) (PrestoBlue® assay, Molecular Probes) with the aim to determine non-toxic doses of cell treatment.
After the collection of the supernatant sample for the ACTH assay in the previous step, cells were supplemented with the PrestoBlue™ cell viability reagent (Invitrogen™ A13261) at 10% final volume, and re-incubated at 37° C. for 30 minutes. Fluorescence was then read with a FLUOstar OPTIMA microplate reader.

Row | SMILES | toxicity in AtT-20 cells, in words
22 | O=C(Nc1ccc([N+](=O)[O-])cc1Cl)c1cc(Cl)ccc1O [Niclosamide, reference compound] | no significant toxicity

Same assay, conditions: 1.0 μM

Row | SMILES | toxicity in AtT-20 cells, in words
23 | O=C(Nc1ccc([N+](=O)[O-])cc1Cl)c1cc(Cl)ccc1O [Niclosamide, reference compound] | no significant toxicity

Same assay, conditions: 25 μM for 24 hours

Row | SMILES | cytotoxicity on AtT-20 cells, in words (FIG. 6)
24 | O=C(Nc1ccc(Cl)cc1)c1cc(I)cc(I)c1O [Amb1935028] | partially cytotoxic

Same assay, conditions: 25 μM, 24-hour exposure

Row | SMILES | AtT-20 cell viability (PrestoBlue assay) % of control (DMSO) at 25 μM Mean (SD)
25 | O=C(Nc1ccc(Cl)cc1)c1cc(I)cc(I)c1O [Amb1935028] | 58.81 (34.11) %
26 | O=C(Nc1cc(Cl)ccc1Cl)c1cc(I)cc(I)c1O [Amb8477378] | 95.72 (11.42) %
27 | Cc1ccc(NC(=O)Cn2ccccc2=O)c(OCc2ccccc2)c1 [Z738998144] | 95.98 (15.33) %
28 | O=C(Nc1ccc(Cl)cc1C(=O)c1ccccc1F)c1ccc(=O)[nH]c1 [Z220328740] | 102.9 (15.16) %
29 | O=C(Nc1cc(Cl)cc(Cl)c1)c1cc(I)cc(I)c1O [Amb8477462] | 67.96 (17.52) %

Same assay, conditions: 27 μM, 24-hour exposure

Row | SMILES | AtT-20 cell viability (PrestoBlue assay) % of control (DMSO) (at 27 μM) Mean (SD)
30 | O=C(Nc1ccc([N+](=O)[O-])cc1Cl)c1cc(Cl)ccc1O [Niclosamide, reference compound] | 50% (12,40) (at 27 μM)

Same assay, conditions: AtT-20 cells, 24-hour exposure, several doses

Row | SMILES | dose-dependent viability assay, in words (FIG. 7)
31 | O=C(Nc1ccc([N+](=O)[O-])cc1Cl)c1cc(Cl)ccc1O [Niclosamide, reference compound] | considerable effects on viability upon higher doses
